According to article PMC7377239, “Cardiovascular Effects of Polychlorinated Biphenyls and Their Major Metabolites” (Environmental Health Perspectives, 2020):
Where two headings read alike, the source gives them in different places.

Key:
[1] = tested on: iCell cardiomyocytes (human iPSC-derived cardiomyocytes); assay: High-content imaging of cytotoxicity and mitochondrial integrity in iPSC-CMs; format: cell-based; conditions: Homo sapiens; for viability at 0.01 µM / activity at 0.01 µM / viability at 0.1 µM / activity at 0.1 µM / viability at 1 µM / activity at 1 µM / viability at 10 µM / activity at 10 µM / viability at 100 µM / activity at 100 µM: Cardiomyocyte, 0.00 µM = 100.00; for viability at 0.1 µM / activity at 0.1 µM: 0.10 µM; for minimal effective concentration: iPSC-CM
Procedure, shortened: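 This assay measured cytotoxicity and mitochondrial integrity in iPSC cardiomyocytes held in 40μL maintenance medium. After compound exposure, a 2× staining solution with Hoechst 33342 (4μg/mL) and MitoTracker™ Orange (0.4μM) was applied for 15 min at 37°C. Cells were washed, fixed with 3.7% formaldehyde, imaged on DAPI and Cy3 channels, and scored in MetaXpress®.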

[2] = tested on: HUVECs; assay: High-content imaging cytotoxicity in HUVECs, 24 h; format: cell-based, human; conditions: Homo sapiens, HUVEC, 24 h, HUVECs; for viability at 0.01 µM / activity at 0.01 µM / viability at 0.1 µM / activity at 0.1 µM / viability at 1 µM / activity at 1 µM / viability at 10 µM / activity at 10 µM / viability at 100 µM / activity at 100 µM: 0.00 µM = 100.00; for viability at 0.1 µM / activity at 0.1 µM: 0.10 µM; for minimal effective concentration: top concentration 100.00 µM
Procedure, shortened: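 Read-out: multiwavelength high-content imaging of Hoechst 33342, MitoTracker Orange and calcein AM after 24 h compound exposure of confluent HUVEC monolayers. POD values were set using a one-SD cutoff from vehicle (0.5% DMSO) means; with no concentration–response, 100μM was assigned as no observable adverse effect level.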

[3] = 24 hr, read-out: huvec.cyto.24hr
[4] = 24 hr, read-out: huvec.mito.24hr
[5] = 24 hr, read-out: huvec.mitoint.24hr
[6] = 24 hr, read-out: huvec.nma.24hr
[7] = 24 hrs, read-out: huvec.tc.24hrs

`Clc1ccc(-c2ccccc2)cc1` [PCB3] was tested, and the viability at 0.01 µM ([1]; 1.5 h, read-out: cm.cam.90min) was 104%, the activity at 0.01 µM ([1]; 1.5 h, read-out: cm.mii.90min) was 107% and the activity at 0.01 µM ([1]; 1.5 h, read-out: cm.mito.90min) was 104%. For the same compound, the viability at 0.01 µM ([1]; 1.5 h, read-out: cm.tc.90min) was 104%, the viability at 0.1 µM ([1]; 1.5 h, read-out: cm.cam.90min) was 97.8% and the activity at 0.1 µM ([1]; 1.5 h, read-out: cm.mii.90min) was 103%. For the same compound, the activity at 0.1 µM ([1]; 1.5 h, read-out: cm.mito.90min) was 97.7%, the viability at 0.1 µM ([1]; 1.5 h, read-out: cm.tc.90min) was 97.7% and the viability at 1 µM ([1]; 1.5 h, read-out: cm.cam.90min) was 98.5%. For the same compound, the activity at 1 µM ([1]; 1.5 h, read-out: cm.mii.90min) was 104%, the activity at 1 µM ([1]; 1.5 h, read-out: cm.mito.90min) was 98.3% and the viability at 1 µM ([1]; 1.5 h, read-out: cm.tc.90min) was 98.2%. The viability at 10 µM ([1]; 1.5 h, read-out: cm.cam.90min) was 99.9%, the activity at 10 µM ([1]; 1.5 h, read-out: cm.mii.90min) was 109% and the activity at 10 µM ([1]; 1.5 h, read-out: cm.mito.90min) was 99.6%. For the same compound, the viability at 10 µM ([1]; 1.5 h, read-out: cm.tc.90min) was 99.5%, the viability at 100 µM ([1]; 1.5 h, read-out: cm.cam.90min) was 40.3% and the activity at 100 µM ([1]; 1.5 h, read-out: cm.mii.90min) was 141%. The activity at 100 µM ([1]; 1.5 h, read-out: cm.mito.90min) was 39.3%, the viability at 100 µM ([1]; 1.5 h, read-out: cm.tc.90min) was 40.4% and the viability at 0.01 µM ([1]; 24 h, read-out: cm.cam.24hrs) was 87.6%. The activity at 0.01 µM ([1]; 24 h, read-out: cm.mii.24hrs) was 109%, the activity at 0.01 µM ([1]; 24 h, read-out: cm.mito.24hrs) was 84.7% and the viability at 0.01 µM ([1]; 24 h, read-out: cm.tc.24hrs) was 87.2%. The viability at 0.1 µM ([1]; 24 h, read-out: cm.cam.24hrs) was 96%, the activity at 0.1 µM ([1]; 24 h, read-out: cm.mii.24hrs) was 101% and the activity at 0.1 µM ([1]; 24 h, read-out: cm.mito.24hrs) was 93.1%. The viability at 0.1 µM ([1]; 24 h, read-out: cm.tc.24hrs) was 95.9%, the viability at 1 µM ([1]; 24 h, read-out: cm.cam.24hrs) was 95.4% and the activity at 1 µM ([1]; 24 h, read-out: cm.mii.24hrs) was 97.1%. The activity at 1 µM ([1]; 24 h, read-out: cm.mito.24hrs) was 91%, the viability at 1 µM ([1]; 24 h, read-out: cm.tc.24hrs) was 95.3% and the viability at 10 µM ([1]; 24 h, read-out: cm.cam.24hrs) was 91.4%. For the same compound, the activity at 10 µM ([1]; 24 h, read-out: cm.mii.24hrs) was 87.2%, the activity at 10 µM ([1]; 24 h, read-out: cm.mito.24hrs) was 87.8% and the viability at 10 µM ([1]; 24 h, read-out: cm.tc.24hrs) was 90.8%. For the same compound, the viability at 100 µM ([1]; 24 h, read-out: cm.cam.24hrs) was 1.51%, the activity at 100 µM ([1]; 24 h, read-out: cm.mii.24hrs) was 32% and the activity at 100 µM ([1]; 24 h, read-out: cm.mito.24hrs) was 0.72%. The viability at 100 µM ([1]; 24 h, read-out: cm.tc.24hrs) was 1.49%, the minimal effective concentration ([1]; 1.5 h, read-out: cm.cam.90min POD) was 24.9 µM and the minimal effective concentration ([1]; 1.5 h, read-out: cm.mii.90min POD) was 6.86 µM. The minimal effective concentration ([1]; 1.5 h, read-out: cm.mito.90min POD) was 21.2 µM, the minimal effective concentration ([1]; 1.5 h, read-out: cm.tc.90min POD) was 20 µM and the minimal effective concentration ([1]; 24 h, read-out: cm.cam.24hrs POD) was 7.4 µM. For the same compound, the minimal effective concentration ([1]; 24 h, read-out: cm.mii.24hrs POD) was 10.9 µM, the minimal effective concentration ([1]; 24 h, read-out: cm.mito.24hrs POD) was 6.67 µM and the minimal effective concentration ([1]; 24 h, read-out: cm.tc.24hrs POD) was 6.97 µM. For the same compound, the viability at 0.01 µM [2, 3] was 83.5%, the activity at 0.01 µM [2, 4] was 83.3% and the activity at 0.01 µM [2, 5] was 93.5%. For the same compound, the activity at 0.01 µM [2, 6] was 94.7%, the viability at 0.1 µM [2, 3] was 87.1% and the activity at 0.1 µM [2, 4] was 86.7%. The activity at 0.1 µM [2, 5] was 118%, the activity at 0.1 µM [2, 6] was 93% and the viability at 1 µM [2, 3] was 73.5%. For the same compound, the activity at 1 µM [2, 4] was 72.5%, the activity at 1 µM [2, 5] was 97.5% and the activity at 1 µM [2, 6] was 93.1%. It also gave a viability at 10 µM [2, 3] of 87.9%, an activity at 10 µM [2, 4] of 85.4% and an activity at 10 µM [2, 5] of 76%. The activity at 10 µM [2, 6] was 85.2%, the viability at 100 µM [2, 3] was 56% and the activity at 100 µM [2, 4] was 44.6%. For the same compound, the activity at 100 µM [2, 5] was 51%, the activity at 100 µM [2, 6] was 71% and the minimal effective concentration ([2]; 24 hr, read-out: huvec.cyto.24hr POD) was 100 µM. For the same compound, the minimal effective concentration ([2]; 24 hr, read-out: huvec.mito.24hr POD) was 100 µM, the minimal effective concentration ([2]; 24 hr, read-out: huvec.mitoint.24hr POD) was 100 µM and the minimal effective concentration ([2]; 24 hr, read-out: huvec.nma.24hr POD) was 100 µM. For the same compound, the viability at 0.01 µM [2, 7] was 83.5%, the viability at 0.1 µM [2, 7] was 87.1% and the viability at 1 µM [2, 7] was 73.7%. For the same compound, the viability at 10 µM [2, 7] was 88%, the viability at 100 µM [2, 7] was 56.1% and the minimal effective concentration ([2]; 24 hrs, read-out: huvec.tc.24hrs POD) was 100 µM.
